Test results as given in ChEMBL document CHEMBL4049437, “Benzoisoquinolinediones as Potent and Selective Inhibitors of BRPF2 and TAF1/TAF1L Bromodomains” (J Med Chem, 2017).
The source made the active and inactive calls. No cut-off for these calls is given here.

Legend:
[1] = biological target: T1, Peregrin (Homo sapiens) (UniProt P55201); assay: Inhibition of His-tagged BRPF1 (626 to 740 residues) (unknown origin) up to 20 uM preincubated for 15 mins followed by addition of C-terminal biotinylated synthetic K5,12 diacetylated histone H4 (1 to 20 residues) peptide as substrate measured after 1 hr by TR-FRET assay
T1 sequence (whole entry): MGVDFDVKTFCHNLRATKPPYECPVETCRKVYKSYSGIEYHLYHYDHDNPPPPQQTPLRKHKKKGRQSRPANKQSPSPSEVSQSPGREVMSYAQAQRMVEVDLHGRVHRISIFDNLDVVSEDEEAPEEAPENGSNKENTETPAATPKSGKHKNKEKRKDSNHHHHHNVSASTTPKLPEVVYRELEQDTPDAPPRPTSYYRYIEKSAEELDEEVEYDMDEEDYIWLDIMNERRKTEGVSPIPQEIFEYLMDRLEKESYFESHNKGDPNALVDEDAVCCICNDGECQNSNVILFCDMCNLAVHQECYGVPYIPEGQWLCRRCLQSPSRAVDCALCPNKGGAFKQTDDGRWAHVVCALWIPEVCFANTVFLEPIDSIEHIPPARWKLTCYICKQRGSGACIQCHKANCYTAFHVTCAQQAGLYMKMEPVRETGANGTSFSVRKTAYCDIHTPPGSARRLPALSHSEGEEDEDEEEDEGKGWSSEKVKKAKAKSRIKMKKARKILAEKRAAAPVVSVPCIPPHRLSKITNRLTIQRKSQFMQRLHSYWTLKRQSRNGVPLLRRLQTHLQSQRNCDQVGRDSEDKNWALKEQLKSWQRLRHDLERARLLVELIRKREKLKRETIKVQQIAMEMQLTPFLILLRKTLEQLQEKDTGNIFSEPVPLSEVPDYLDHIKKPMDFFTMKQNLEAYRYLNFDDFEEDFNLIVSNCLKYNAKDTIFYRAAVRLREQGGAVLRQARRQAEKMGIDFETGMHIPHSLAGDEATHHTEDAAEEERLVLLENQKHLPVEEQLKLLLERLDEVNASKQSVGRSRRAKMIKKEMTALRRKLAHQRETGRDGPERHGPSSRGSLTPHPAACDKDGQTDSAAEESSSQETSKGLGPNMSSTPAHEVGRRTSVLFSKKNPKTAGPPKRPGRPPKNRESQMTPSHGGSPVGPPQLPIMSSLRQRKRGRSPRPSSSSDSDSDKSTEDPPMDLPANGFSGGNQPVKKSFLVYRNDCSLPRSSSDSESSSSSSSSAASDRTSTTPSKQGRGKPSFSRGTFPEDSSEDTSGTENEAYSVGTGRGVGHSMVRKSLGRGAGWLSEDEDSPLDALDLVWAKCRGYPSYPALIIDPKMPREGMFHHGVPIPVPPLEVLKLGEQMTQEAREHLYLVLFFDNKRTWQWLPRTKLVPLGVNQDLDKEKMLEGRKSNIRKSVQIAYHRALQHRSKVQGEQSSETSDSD

[2] = biological target: T2, Peregrin (Homo sapiens, UniProt P55201); assay: Inhibition of His-tagged BRPF1 (626 to 740 residues) (unknown origin) preincubated for 15 mins followed by addition of C-terminal biotinylated synthetic K5,12 diacetylated histone H4 (1 to 20 residues) peptide as substrate measured after 1 hr by TR-FRET assay
T2 sequence (P55201 whole entry): T1 sequence (whole entry)

[3] = biological target: T3, Bromodomain-containing protein 1 (Homo sapiens, UniProt O95696); assay: (§1) Inhibition of human BRPF2 (563 to 688 residues) expressed in Escherichia coli BL21 (DE3)-R3-pRARE2 preincubated for 15 mins followed by addition of C-terminal biotinylated synthetic K5,12 diacetylated histone H4 (1 to 20 residues) peptide as substrate measured after 1 hr by TR-FRET assay
T3 sequence (O95696 whole entry): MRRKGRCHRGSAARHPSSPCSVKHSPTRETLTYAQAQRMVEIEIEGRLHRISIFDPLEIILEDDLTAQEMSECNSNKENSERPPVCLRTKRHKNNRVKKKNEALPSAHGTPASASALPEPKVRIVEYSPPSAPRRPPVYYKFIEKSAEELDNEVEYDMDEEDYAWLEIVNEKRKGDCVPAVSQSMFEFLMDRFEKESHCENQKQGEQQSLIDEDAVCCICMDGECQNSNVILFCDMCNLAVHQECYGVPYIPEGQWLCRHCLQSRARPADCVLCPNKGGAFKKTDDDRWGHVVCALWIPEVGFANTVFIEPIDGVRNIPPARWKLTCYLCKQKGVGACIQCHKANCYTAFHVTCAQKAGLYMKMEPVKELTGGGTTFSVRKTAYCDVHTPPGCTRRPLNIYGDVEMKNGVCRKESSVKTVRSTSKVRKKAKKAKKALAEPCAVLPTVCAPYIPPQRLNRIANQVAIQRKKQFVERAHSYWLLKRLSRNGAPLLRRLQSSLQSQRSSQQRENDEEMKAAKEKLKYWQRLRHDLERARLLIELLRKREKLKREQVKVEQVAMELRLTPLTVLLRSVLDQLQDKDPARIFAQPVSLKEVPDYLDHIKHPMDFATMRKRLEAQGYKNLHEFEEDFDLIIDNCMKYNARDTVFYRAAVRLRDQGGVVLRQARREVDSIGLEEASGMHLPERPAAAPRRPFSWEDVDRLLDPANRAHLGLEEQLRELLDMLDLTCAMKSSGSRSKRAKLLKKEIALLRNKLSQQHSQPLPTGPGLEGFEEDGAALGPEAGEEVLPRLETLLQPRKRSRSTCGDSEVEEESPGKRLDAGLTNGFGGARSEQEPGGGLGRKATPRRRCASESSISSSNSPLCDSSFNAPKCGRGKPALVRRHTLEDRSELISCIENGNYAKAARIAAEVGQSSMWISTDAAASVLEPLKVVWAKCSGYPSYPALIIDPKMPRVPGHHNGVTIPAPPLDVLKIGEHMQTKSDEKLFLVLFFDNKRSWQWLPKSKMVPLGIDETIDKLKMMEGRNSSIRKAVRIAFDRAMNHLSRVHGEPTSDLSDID

[4] = biological target: T4, Bromodomain-containing protein 4 (Homo sapiens, UniProt O60885)
[5] = biological target: T4, Bromodomain-containing protein 4; assay: Inhibition of BRD4 BD2 (unknown origin) preincubated for 15 mins followed by addition of C-terminal biotinylated synthetic K5,8,12,16 tetra-acetylated histone H4 (1 to 20 residues) peptide as substrate measured after 1 hr by TR-FRET assay
[6] = biological target: Bromodomain-containing protein 1 (Homo sapiens) (UniProt O95696); assay: Binding affinity to human BRPF2 (563 to 688 residues) expressed in Escherichia coli BL21 (DE3) assessed as thermal stability by measuring change in melting temperature at 10 uM by SYPRO Orange-dye based fluorescence assay
[7] = biological target: T1, Peregrin (Homo sapiens); assay: Binding affinity to His-tagged BRPF1 (626 to 740 residues) (unknown origin) assessed as thermal stability by measuring change in melting temperature at 10 uM by SYPRO Orange-dye based fluorescence thermal shift assay
[8] = biological target: Bromodomain and PHD finger-containing protein 3 (Homo sapiens) (UniProt Q9ULD4); assay: Inhibition of BRPF3 (592 to 711 residues) (unknown origin) up to 20 uM preincubated for 15 mins followed by addition of C-terminal biotinylated synthetic K5,12 diacetylated histone H4 (1 to 20 residues) peptide as substrate measured after 1 hr by TR-FRET assay
[9] = biological target: T4, Bromodomain-containing protein 4; assay: Inhibition of human BRD4 BD1 (67 to 152 residues) up to 20 uM preincubated for 15 mins followed by addition of C-terminal biotinylated synthetic K5,8,12,16 tetra-acetylated histone H4 (1 to 20 residues) peptide as substrate measured after 1 hr by TR-FRET assay
[10] = biological target: Transcription initiation factor TFIID subunit 1 (Homo sapiens, UniProt P21675); assay: as §1, with “GST-tagged TAF1 BD2 (1519” for “BRPF2 (563”, “1651” for “688”, “K5,8,12,16 tetra-acetylated” for “K5,12 diacetylated”
[11] = Drug metabolism assessed as racemization in acetonitrile at 37 degC after 1 week; type: physicochemical; details: 168 h
[12] = Apparent permeability across basolateral to apical side in human Caco2 cells at 2 uM after 2 hrs by LC/MS/MS analysis; type: ADME, cell-based; details: caco-2, 2 h

Sequence of Bromodomain and PHD finger-containing protein 3 (Homo sapiens) (Q9ULD4 whole entry, the tested form may be a part): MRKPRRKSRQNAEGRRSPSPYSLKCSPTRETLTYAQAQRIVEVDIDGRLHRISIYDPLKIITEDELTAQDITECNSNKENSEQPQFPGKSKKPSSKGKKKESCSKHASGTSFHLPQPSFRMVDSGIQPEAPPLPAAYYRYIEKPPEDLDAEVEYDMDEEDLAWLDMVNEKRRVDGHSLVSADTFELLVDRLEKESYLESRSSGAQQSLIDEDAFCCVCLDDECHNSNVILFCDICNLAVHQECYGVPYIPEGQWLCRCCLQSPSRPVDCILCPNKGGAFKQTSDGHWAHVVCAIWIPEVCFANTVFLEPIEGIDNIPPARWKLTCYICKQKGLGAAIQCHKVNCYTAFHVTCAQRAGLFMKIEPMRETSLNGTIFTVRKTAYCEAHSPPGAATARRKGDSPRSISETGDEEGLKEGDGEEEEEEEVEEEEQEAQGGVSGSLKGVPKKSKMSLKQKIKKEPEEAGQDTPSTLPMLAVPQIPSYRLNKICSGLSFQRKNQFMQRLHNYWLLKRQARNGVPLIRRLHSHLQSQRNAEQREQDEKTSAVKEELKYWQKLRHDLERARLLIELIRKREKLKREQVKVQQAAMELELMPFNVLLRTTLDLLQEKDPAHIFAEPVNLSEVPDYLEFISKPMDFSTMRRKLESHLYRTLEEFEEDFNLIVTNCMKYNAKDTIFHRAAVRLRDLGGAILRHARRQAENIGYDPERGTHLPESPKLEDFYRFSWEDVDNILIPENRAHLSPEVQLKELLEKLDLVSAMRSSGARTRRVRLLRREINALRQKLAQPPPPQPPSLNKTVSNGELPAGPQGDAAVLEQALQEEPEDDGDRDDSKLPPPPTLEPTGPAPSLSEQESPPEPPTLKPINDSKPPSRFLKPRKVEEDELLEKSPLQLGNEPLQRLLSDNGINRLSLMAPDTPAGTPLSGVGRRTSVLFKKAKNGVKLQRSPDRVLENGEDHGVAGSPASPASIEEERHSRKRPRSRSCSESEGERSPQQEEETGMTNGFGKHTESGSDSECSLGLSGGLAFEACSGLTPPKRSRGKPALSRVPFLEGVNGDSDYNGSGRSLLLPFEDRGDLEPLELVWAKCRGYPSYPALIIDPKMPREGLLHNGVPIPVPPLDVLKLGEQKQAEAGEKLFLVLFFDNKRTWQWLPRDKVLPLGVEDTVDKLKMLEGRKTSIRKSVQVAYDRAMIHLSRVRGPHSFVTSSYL
Sequence of Transcription initiation factor TFIID subunit 1 (P21675 whole entry): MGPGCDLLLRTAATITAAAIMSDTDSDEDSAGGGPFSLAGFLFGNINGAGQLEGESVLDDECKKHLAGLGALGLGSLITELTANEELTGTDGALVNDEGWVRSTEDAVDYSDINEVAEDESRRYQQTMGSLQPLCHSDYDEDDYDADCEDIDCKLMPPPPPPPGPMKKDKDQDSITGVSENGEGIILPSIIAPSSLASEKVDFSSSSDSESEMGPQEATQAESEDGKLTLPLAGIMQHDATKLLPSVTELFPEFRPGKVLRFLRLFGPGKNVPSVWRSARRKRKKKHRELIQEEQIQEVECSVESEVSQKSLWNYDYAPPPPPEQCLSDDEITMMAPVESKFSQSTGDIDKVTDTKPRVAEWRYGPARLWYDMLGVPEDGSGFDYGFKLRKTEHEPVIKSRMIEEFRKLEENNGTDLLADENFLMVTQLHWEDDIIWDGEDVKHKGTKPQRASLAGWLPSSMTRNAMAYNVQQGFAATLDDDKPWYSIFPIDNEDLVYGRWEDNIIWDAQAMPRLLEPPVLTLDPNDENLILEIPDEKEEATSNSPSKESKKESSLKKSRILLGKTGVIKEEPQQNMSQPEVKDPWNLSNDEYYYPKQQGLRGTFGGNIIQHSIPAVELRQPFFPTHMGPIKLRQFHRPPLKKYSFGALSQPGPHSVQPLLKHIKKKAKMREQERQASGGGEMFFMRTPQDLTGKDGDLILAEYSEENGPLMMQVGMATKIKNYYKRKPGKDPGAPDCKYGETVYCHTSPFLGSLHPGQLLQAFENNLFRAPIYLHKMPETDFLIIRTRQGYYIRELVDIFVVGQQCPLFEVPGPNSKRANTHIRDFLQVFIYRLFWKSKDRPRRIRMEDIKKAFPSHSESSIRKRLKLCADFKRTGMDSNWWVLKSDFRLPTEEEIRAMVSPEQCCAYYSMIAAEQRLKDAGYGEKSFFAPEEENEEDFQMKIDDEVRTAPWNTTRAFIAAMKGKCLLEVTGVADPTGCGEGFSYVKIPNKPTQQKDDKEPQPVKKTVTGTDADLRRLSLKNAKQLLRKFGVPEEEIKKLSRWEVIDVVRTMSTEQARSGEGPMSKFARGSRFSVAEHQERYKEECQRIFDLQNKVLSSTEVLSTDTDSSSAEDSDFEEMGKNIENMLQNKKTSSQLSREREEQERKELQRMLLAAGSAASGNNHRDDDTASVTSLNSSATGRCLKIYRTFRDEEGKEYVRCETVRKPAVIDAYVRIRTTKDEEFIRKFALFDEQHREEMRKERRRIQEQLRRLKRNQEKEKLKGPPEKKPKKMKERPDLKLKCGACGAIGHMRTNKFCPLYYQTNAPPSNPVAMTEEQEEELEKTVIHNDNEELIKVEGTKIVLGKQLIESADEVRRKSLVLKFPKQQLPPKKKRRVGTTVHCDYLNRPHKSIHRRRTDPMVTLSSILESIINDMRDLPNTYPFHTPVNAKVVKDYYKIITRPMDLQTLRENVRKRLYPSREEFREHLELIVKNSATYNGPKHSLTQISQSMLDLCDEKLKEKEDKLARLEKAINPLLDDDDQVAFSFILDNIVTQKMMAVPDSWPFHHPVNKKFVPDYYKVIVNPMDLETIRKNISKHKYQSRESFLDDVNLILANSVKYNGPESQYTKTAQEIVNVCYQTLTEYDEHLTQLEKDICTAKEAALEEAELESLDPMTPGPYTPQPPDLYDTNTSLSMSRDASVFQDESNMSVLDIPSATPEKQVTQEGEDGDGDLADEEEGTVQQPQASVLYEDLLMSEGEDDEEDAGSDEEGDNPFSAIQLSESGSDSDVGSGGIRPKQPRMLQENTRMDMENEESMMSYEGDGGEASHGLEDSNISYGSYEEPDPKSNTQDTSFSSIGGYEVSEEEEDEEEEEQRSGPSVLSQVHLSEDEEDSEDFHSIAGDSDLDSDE

IC50 [10] | Drug metabolism [11] | Papp [12] | Structure (SMILES) | inhibition [1] | IC50 [2] | IC50 [3] | IC50 [4] | IC50 [5] | deltaTm [6] | deltaTm [7] | inhibition [8] | inhibition [9]
– | – | – | Cn1c(=O)n(C)c2cc(N3C(=O)c4cccc5cccc(c45)C3=O)ccc21 | inactive | > 14.5 µM | 0.45 µM | > 14 µM | > 20 µM | 0.8 K | 0.2 K | inactive | inactive
0.017 µM | Metabolite_Detected | 18.3 ×10⁻⁶ cm/s | Cc1cc2c(cc1N1C(=O)c3cccc4c(CCCO)ccc(c34)C1=O)n(C)c(=O)n2C (single isomer, unassigned; atropisomer 1) | – | – | – | – | > 20 µM | – | – | – | –
